# According to patent US20180142537A1, “WATER INJECTION SYSTEM COMPRISING BIOFILM SENSOR(S)” (TOTAL SA, priority 2015, published 2018):
# Legend:
# biofilm [1] = test: Detection and removal of biofilm by batch or continuous injection of a biocide, seawater channels with ALVIM electrochemical biofilm probe; conditions: Mediterranean seawater; for biofilm probe signal after batch injection of biocide: batch injections at biofilm phases 900 mV, 1100 mV and 1200 mV, FIG. 3
# Description: Tests of biofilm detection were carried out in a pilot plant continuously fed with Mediterranean seawater (2 m deep, 50 m from the coast). The experimental conditions are favorable to the biofilm growth: laminar flowing and coastal seawater rich in microorganisms and suspended solids (Silt Density Index SDI5min=10-18).
# Tests were carried out in a tank divided in 6 parallel channels with equal dimensions (0.76 m-long, 0.1 m-deep and 0.07 m-wide per channel). Each channel was continuously fed with from 10 L/h to 40 L/h of seawater pre-filtered with a multimedia filter (40 μm). The speed of water flowing in the channels ranges from 0.0003 to 0.0013 m/s.
# Several channels are equipped with an electrochemical biofilm sensor whose working electrode is immersed within the flowing water phase. The electrochemical biofilm sensor is provided by ALVIM Srl. This biofilm sensor is able to detect the electrochemical activity of a biofilm (Faimali et al., 2010 and Pavanello et al., 2011). This activity is proportional to the surface covered with biofilm. Thus, when a biofilm appears on the flat surface of the working electrode, the electrical signal transmitted by the device instantly increases. When the working electrode is immersed in seawater, its potential is stable (around 600 mV). Whenever the working electrode detects the biofilm, its potential increases and reaches a potential threshold which relate to a given maximum value of the probe (signal saturation).
# The following experiment has been performed on two parallel channels of the tank. Each one is equipped with an ALVIM probe. Two biocides were tested: sodium hypochlorite (ClO^−Na^+) and rocideDB (DBNPA). Batch injections of biocides have been carried out at different development phases of the biofilm (900 mV, 1100 mV and 1200 mV) in order to evaluate the resistance of the biofilm as a function of its maturation time.
# biofilm [2] = test: Biofilm growth upstream and downstream an ultrafiltration unit, with sodium hypochlorite injection; conditions: 2 ppm injected at pilot inlet, upstream of the ultrafiltration module; two injections; FIG. 5
# Excerpt: A second series of tests has been carried out to study the efficiency of inline monitoring upstream and downstream an ultrafiltration unit (pore size 10-50 nm). This type of porous membranes is considered as being able to retain all microorganisms present in natural water.
# Ultrafiltration modules are used according to the set up represented at FIG. 4. The UF modules are continuously fed with pre-filtered Mediterranean seawater (40 μm multimedia filter F, 2 m deep, 50 m from the coast, laminar flowing, Silt Density Index SDI5min=10-18). The flow rates of the UF modules are: 3000-4000 L/h and the recovery is around 80%.
# Two probes are positioned at the following locations of the pilot: • Probe 1: at the feedwater point of the ultrafiltration module (0.4-0.6 m/s);
# Probe 2: downstream the ultrafiltration module (flowing velocity=0.3-0.5 m/s).
# A dose of sodium hypochlorite is injected at various times during the experiment at the inlet of the pilot (upstream probe 1) as shown on FIG. 5.
SMILES,biofilm probe signal after batch injection of biocide (biofilm [1]),biofilm growth under continuous biocide injection (biofilm [1]; continuous injection of 1 mg/L),signal of probe 1 (feedwater) after biocide injection (biofilm [2])
"N#CC(Br)(Br)C(N)=O [DBNPA, 2,2-dibromo-3-nitrilopropionamide]",brings the signal back to the baseline,,
OCl [sodium hypochlorite],brings the signal back to the baseline,no biofilm growth was detected,goes down rapidly to the baseline
